Test [1] has as its target T1, SLC26A4 (Homo sapiens, UniProt O43511).
T1 sequence (O43511 1-780): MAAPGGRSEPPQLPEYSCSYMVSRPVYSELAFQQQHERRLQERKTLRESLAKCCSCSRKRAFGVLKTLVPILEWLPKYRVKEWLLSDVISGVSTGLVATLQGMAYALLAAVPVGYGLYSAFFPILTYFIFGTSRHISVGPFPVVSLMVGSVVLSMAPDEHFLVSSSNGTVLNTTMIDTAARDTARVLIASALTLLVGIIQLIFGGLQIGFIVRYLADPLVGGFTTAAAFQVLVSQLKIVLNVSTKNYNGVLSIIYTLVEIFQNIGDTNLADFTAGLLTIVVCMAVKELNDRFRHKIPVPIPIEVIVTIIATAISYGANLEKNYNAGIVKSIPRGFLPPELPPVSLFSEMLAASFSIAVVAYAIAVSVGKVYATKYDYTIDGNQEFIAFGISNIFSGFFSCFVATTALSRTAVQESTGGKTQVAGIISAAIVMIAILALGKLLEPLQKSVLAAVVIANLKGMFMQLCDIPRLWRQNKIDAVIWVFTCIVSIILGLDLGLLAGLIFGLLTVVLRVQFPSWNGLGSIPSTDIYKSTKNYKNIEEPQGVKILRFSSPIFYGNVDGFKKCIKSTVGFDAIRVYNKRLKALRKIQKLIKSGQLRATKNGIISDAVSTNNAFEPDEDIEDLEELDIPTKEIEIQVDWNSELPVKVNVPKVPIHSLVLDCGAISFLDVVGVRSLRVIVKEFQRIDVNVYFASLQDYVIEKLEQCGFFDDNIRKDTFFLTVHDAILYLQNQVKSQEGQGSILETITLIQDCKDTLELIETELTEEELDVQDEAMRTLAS
In words: YFP-based selectivity assay, SLC26A4. The conditions noted are these: for inhibition at 10 µM: read-out: % Inhibition SLC26A4. Type of test: cell-based.

Test [2] concerns TMEM16A. Kind of test: YFP-based selectivity assay, TMEM16A. Type of test: cell-based. The conditions noted are these: 10 μM, mean ± S.E.M., n = 6–8.
Test [3] has as its target T2, SLC26A3 (Mus musculus, UniProt Q9WVC8).
T2 sequence (Q9WVC8 1-757): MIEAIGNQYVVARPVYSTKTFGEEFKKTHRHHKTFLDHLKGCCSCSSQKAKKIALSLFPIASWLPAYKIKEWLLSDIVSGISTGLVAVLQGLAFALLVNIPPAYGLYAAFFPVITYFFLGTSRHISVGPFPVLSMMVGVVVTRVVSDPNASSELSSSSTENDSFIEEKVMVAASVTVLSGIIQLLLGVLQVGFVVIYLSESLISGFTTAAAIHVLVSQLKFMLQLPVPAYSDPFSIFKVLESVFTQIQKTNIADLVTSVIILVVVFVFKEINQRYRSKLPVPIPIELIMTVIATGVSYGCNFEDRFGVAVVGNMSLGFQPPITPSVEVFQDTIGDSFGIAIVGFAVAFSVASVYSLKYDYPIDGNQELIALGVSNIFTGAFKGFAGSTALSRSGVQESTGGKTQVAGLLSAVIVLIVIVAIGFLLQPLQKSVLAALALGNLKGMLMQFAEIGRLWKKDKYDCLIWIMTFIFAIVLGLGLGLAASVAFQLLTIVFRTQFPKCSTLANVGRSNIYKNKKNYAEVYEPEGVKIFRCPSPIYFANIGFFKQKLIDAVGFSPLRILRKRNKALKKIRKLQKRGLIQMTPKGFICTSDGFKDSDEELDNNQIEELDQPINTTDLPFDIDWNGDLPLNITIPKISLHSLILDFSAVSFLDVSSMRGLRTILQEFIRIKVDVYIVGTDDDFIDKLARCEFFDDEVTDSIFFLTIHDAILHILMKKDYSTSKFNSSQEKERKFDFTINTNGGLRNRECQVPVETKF
Kind of test: Kinetic studies of inhibitor action. Type of test: cell-based, murine. The conditions noted are these: from kinetics of inhibition onset and washout.

Test [4] relates to loperamide-induced constipation. Kind of test: Loperamide-induced model of constipation in mice. It counts as in vivo, CD1 mice.
The test system is the same in test [5]. The conditions noted are these: mouse model of constipation produced by loperamide; cited from earlier work.
The subject of test [6] is hyperoxaluria and oxalate nephropathy. The conditions noted are these: mice orally loaded with oxalate; cited from earlier work.
Test [7] concerns absorption of fluid and oxalate from the loop lumen. The conditions noted are these: closed colonic loops in mice; cited from earlier work.
The mark [8] stands for this setting: loperamide-treated mice (0.3 mg/kg ip), 10 mg/kg oral gavage, vs vehicle.
[9] abbreviates: loperamide 0.3 mg/kg intraperitoneal.

Consider seven compounds from paper PMC10124120 (European journal of medicinal chemistry, 2023).

On to `O=C(Nc1ccccc1C(=O)O)c1ccc2c(c1)C(=O)N(c1ccc(Cl)cc1)C2=O` [Compound 1a], for which the inhibition at 10 µM in test [1] was -14 ± 19%.
On to `Cc1cc(C)cc(N(C)S(=O)(=O)c2nnc(NC(=O)COc3ccc(C)c(C)c3)s2)c1` [Compound 2a], for which, in test [2], the “% Inhibition TMEM16A” value was greater than 80%.
As to `O=c1cc(COc2ccccc2Cl)nc2scc(-c3ccccc3)n12` [Compound 3a, 7-(2-chloro-phenoxymethyl)-3-phenyl-thiazolo [3,2-a]pyrimidin-5-one], in test [1], the inhibition at 10 µM was -13 ± 23%. Besides, in test [3], the site of action entry was “Extracellular”. Besides, in test [4] (setting [8]), the number of pellets result is on record as “significantly increased” and the stool weight entry is “significantly increased”.
In the case of `Cc1ccccc1COc1ccc2oc(-c3ccccc3)c(C(=O)O)c2c1` [Compound 4a], the inhibition at 10 µM in test [1] was -13 ± 21%. In addition, the site of action result in test [3] is “Extracellular”.
With `COC(=O)c1c(C)oc2ccc(OC(=O)COCc3ccccc3)cc12` [Compound 4h], the “activity against SLC26A4 (in words)” value in test [1] is listed as “active”.
On to `Cc1c(CC(=O)O)c(=O)oc2c(C)c(OCc3cccc(I)c3)ccc12` [DRAinh-A270, [7-(3-iodobenzyloxy)-4,8-dimethylcoumarin]-3-acetic acid], for which the site of action entry in test [3] was “intracellular”. Further, in test [5], the “improving stool output and hydration” value is “effective”. The “preventing hyperoxaluria and oxalate nephropathy” value in test [6] is recorded as “effective”. Moreover, the “absorption of fluid and oxalate from the loop lumen” value in test [7] is “inhibited”.
For `CN(C)C(=O)C(CCN1CCC(O)(c2ccc(Cl)cc2)CC1)(c1ccccc1)c1ccccc1` [Loperamide, loperamide, reference compound], in test [4] (setting [9]), the “reduced pellet number compared to control mice” value is greater than 90% and the “reduced stool weight compared to control mice” value is listed as greater than 90%.
